# Source: publication PMC3943356 (Bioorganic & medicinal chemistry letters, 2013)
# Structures can show the parent of a compound that is named as a salt. Where two headings read alike, the source gives them in different places.
# What was measured:
# VGLUT [1] = experiment: Inhibition of 3H-L-Glu uptake into synaptic vesicles prepared from rat brain; conditions: for reduction (block) of L-Glu uptake: compound at 250 µM, 3H-L-Glu 250 µM
# VGLUT [2] = biological target: VGLUT
# AMPA receptors = conditions: cited from earlier work
# NMDA receptor = conditions: cited from earlier work
# KA receptors = conditions: cited from earlier work
# VGLUT [3] = conditions: read-out: Ki at VGLUT; cited from earlier work
molecule,measurement,setting,value
"O=C(O)c1cc(C(=O)O)c2c(ccc3cc4ccccc4cc32)n1 [5,6-NQDC, Naphtho[2,3-f]quinoline-1,3-dicarboxylic acid]",reduction (block) of L-Glu uptake,VGLUT [1],over 80%
same,Ki,VGLUT [2],~60 µM
"O=C(O)c1cc(C(=O)O)c2ccc3cc4ccccc4cc3c2n1 [7,8-NQDC, Naphtho[2,3-h]quinoline-2,4-dicarboxylic acid]",reduction (block) of L-Glu uptake,VGLUT [1],similarly effective
same,Ki,VGLUT [2],~60 µM
C[C@]12CC[C@@H]3c4ccc(OC(=O)CCC(=O)O)cc4CC[C@H]3[C@@H]1CCC2=O [Estrone hemisuccinate],reduction (block) of L-Glu uptake,VGLUT [1],inactive
C[C@]12CC[C@@H]3c4ccc(O)cc4CC[C@H]3[C@@H]1CCC2=O [Estrone],reduction (block) of L-Glu uptake,VGLUT [1],did not block L-Glu uptake to any appreciable level
"N[C@@H](CCC(=O)O)C(=O)O [L-Glu, Glutamate]",Km,"VGLUT [1]; read-out: Km of L-Glu uptake, Lineweaver-Burk plot, Fig. 3",2.5 mM
CC(=O)[C@H]1CC[C@H]2[C@@H]3CC[C@@H]4C[C@@H](OS(=O)(=O)O)CC[C@]4(C)[C@H]3CC[C@]12C [Pregnanolone sulfate],activity relative to the endogenous substrate L-Glu,VGLUT [1],approximately 100 fold
same,mechanism of inhibition,"VGLUT [1]; Lineweaver-Burk plot, increase in Km,app, no change in Vmax",competitive inhibition
same,reduction (block) of L-Glu uptake,VGLUT [1],85%
same,effect on AMPA receptors,AMPA receptors,inhibits
same,effect on NMDA receptor,NMDA receptor,inhibits
same,effect on KA receptors,KA receptors,inhibits
CC(=O)[C@H]1CC[C@H]2[C@@H]3CC=C4C[C@@H](O)CC[C@]4(C)[C@H]3CC[C@]12C [Pregnenolone],reduction (block) of L-Glu uptake,VGLUT [1],did not block L-Glu uptake to any appreciable level
CC(C)CC1C(=O)N2CCCC2C2(O)OC(NC(=O)C3C=C4c5cccc6[nH]c(Br)c(c56)CC4N(C)C3)(C(C)C)C(=O)N12 (centres unmarked) [bromocryptine],Ki,VGLUT [3],~22 µM
Pregnenolone sulfate,reduction (block) of L-Glu uptake,VGLUT [1],70%
same,effect on NMDA receptor,NMDA receptor,potentiate
